According to US20230085307A1, “PYRIDAZINONE COMPOUND AND HERBICIDE” (NISSAN CHEMICAL CORPORATION, priority 2019, published 2023):

Tests used:
[1] = system: late watergrass; experiment: Test Example 2: herbicidal activity, application during weed generation under submerged conditions (Table 17, symbol A); assay type: in vivo, late watergrass (Echinochloa oryzicola); conditions: AAH 320 g/ha; application during weed generation, submerged conditions
In short: (§1)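 Steps: fill Wagner pots with alluvial soil; add water to give 4 cm depth; sow the species mixed; grow under glass at 25–30° C.; at 1–2 leaves apply water-diluted emulsion formulation to the water surface at a fixed herbicide amount; score after 3 weeks.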

[2] = system: wild oat; experiment: Test Example 5: herbicidal effect by foliage application, plastic box (Table 20, symbol I); assay type: in vivo, wild oat (Avena fatua); conditions: foliage application, 320 g/ha
In short: (§2)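 Plants were sown into sterilized diluvial soil under about 1.5 cm cover and kept in a greenhouse at 25° C. to 30° C. Fourteen days on, foliage received an even spray of the diluted emulsion. Herbicidal or crop effect was judged three weeks afterwards.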

[3] = system: persian speedwell; experiment: Test Example 5: herbicidal effect by foliage application, plastic box (Table 20, symbol R); assay type: in vivo, Persian speedwell (Veronica persica); conditions: foliage application, 320 g/ha
In short: as §2

[4] = system: redroot pigweed; experiment: Test Example 5: herbicidal effect by foliage application, plastic box (Table 20, symbol N); assay type: in vivo, redroot pigweed (Amaranthus retroflexus); conditions: foliage application, 320 g/ha
In short: as §2

[5] = system: false cleavers; experiment: Test Example 5: herbicidal effect by foliage application, plastic box (Table 20, symbol Q); assay type: in vivo, false cleavers (Galium spurium); conditions: foliage application, 320 g/ha
In short: as §2

[6] = system: lambsquarters; experiment: Test Example 4: herbicidal effect by soil treatment (Table 19, symbol O); assay type: in vivo, lambsquarters (Chenopodium album); conditions: amount of applied herbicide 320 g/ha
In short: (§3)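 Pre-emergence style soil spray: seeds under ~1.5 cm sterilized diluvial soil received a uniform coat of emulsion diluted to the predetermined herbicide amount. Greenhouse 25–30° C; readout at week three on previously defined criteria.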

[7] = system: southern crabgrass; experiment: Test Example 4: herbicidal effect by soil treatment (Table 19, symbol F); assay type: in vivo, southern crabgrass (Digitaria ciliaris); conditions: amount of applied herbicide 320 g/ha
In short: as §3

[8] = system: Italian ryegrass; experiment: Test Example 4: herbicidal effect by soil treatment (Table 19, symbol K); assay type: in vivo, Italian ryegrass (Lolium multiflorum); conditions: amount of applied herbicide 320 g/ha
In short: as §3

[9] = system: Chinese sprangletop; experiment: Test Example 3: herbicidal effect by foliage application, Wagner pot (Table 18, symbol D); assay type: in vivo, chinese sprangletop (Leptochloa chinensis); conditions: 320 g/ha
In short: (§4)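 Plants were sown in alluvial soil held under 0.1–0.5 cm standing water and grown 14 days in a greenhouse at 25–30 °C. An emulsifiable formulation, water-diluted to the set dose, was then sprayed onto the foliage, and effects were scored three weeks later using previously defined criteria.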

[10] = system: redroot pigweed; experiment: Test Example 4: herbicidal effect by soil treatment (Table 19, symbol N); assay type: in vivo, redroot pigweed (Amaranthus retroflexus); conditions: amount of applied herbicide 320 g/ha
In short: as §3

[11] = system: barnyard grass; experiment: Test Example 3: herbicidal effect by foliage application, Wagner pot (Table 18, symbol H); assay type: in vivo, barnyard grass (Echinochloa crus-galli); conditions: 320 g/ha
In short: as §4

[12] = system: green foxtail; experiment: Test Example 4: herbicidal effect by soil treatment (Table 19, symbol G); assay type: in vivo, green foxtail (Setaria viridis); conditions: amount of applied herbicide 320 g/ha
In short: as §3

[13] = system: chickweed; experiment: Test Example 4: herbicidal effect by soil treatment (Table 19, symbol P); assay type: in vivo, common chickweed (Stellaria media); conditions: amount of applied herbicide 320 g/ha
In short: as §3

[14] = system: blackgrass; experiment: Test Example 5: herbicidal effect by foliage application, plastic box (Table 20, symbol J); assay type: in vivo, blackgrass (Alopecurus myosuroides); conditions: foliage application, 320 g/ha
In short: as §2

[15] = system: Italian ryegrass; experiment: Test Example 5: herbicidal effect by foliage application, plastic box (Table 20, symbol K); assay type: in vivo, Italian ryegrass (Lolium multiflorum); conditions: foliage application, 320 g/ha
In short: as §2

[16] = system: green foxtail; experiment: Test Example 5: herbicidal effect by foliage application, plastic box (Table 20, symbol G); assay type: in vivo, green foxtail (Setaria viridis); conditions: foliage application, 320 g/ha
In short: as §2

[17] = system: chickweed; experiment: Test Example 5: herbicidal effect by foliage application, plastic box (Table 20, symbol P); assay type: in vivo, common chickweed (Stellaria media); conditions: foliage application, 320 g/ha
In short: as §2

[18] = system: Japanese bulrush; experiment: Test Example 2: herbicidal activity, application during weed generation under submerged conditions (Table 17, symbol B); assay type: in vivo, Japanese bulrush (Schoenoplectus juncoides); conditions: AAH 320 g/ha; application during weed generation, submerged conditions
In short: as §1

[19] = system: false cleavers; experiment: Test Example 4: herbicidal effect by soil treatment (Table 19, symbol Q); assay type: in vivo, false cleavers (Galium spurium); conditions: amount of applied herbicide 320 g/ha
In short: as §3

[20] = system: rice flat sedge; experiment: Test Example 3: herbicidal effect by foliage application, Wagner pot (Table 18, symbol E); assay type: in vivo, rice flat sedge (Cyperus iria); conditions: 320 g/ha
In short: as §4

[21] = system: windgrass; experiment: Test Example 5: herbicidal effect by foliage application, plastic box (Table 20, symbol L); assay type: in vivo, windgrass (Apera spica-venti); conditions: foliage application, 320 g/ha
In short: as §2

[22] = system: southern crabgrass; experiment: Test Example 5: herbicidal effect by foliage application, plastic box (Table 20, symbol F); assay type: in vivo, southern crabgrass (Digitaria ciliaris); conditions: foliage application, 320 g/ha
In short: as §2

[23] = system: wild oat; experiment: Test Example 4: herbicidal effect by soil treatment (Table 19, symbol I); assay type: in vivo, wild oat (Avena fatua); conditions: amount of applied herbicide 320 g/ha
In short: as §3

[24] = system: barnyard grass; experiment: Test Example 4: herbicidal effect by soil treatment (Table 19, symbol H); assay type: in vivo, barnyard grass (Echinochloa crus-galli); conditions: amount of applied herbicide 320 g/ha
In short: as §3

[25] = system: velvetleaf; experiment: Test Example 4: herbicidal effect by soil treatment (Table 19, symbol M); assay type: in vivo, velvetleaf (Abutilon theophrasti); conditions: amount of applied herbicide 320 g/ha
In short: as §3

[26] = system: persian speedwell; experiment: Test Example 4: herbicidal effect by soil treatment (Table 19, symbol R); assay type: in vivo, Persian speedwell (Veronica persica); conditions: amount of applied herbicide 320 g/ha
In short: as §3

[27] = system: lambsquarters; experiment: Test Example 5: herbicidal effect by foliage application, plastic box (Table 20, symbol O); assay type: in vivo, lambsquarters (Chenopodium album); conditions: foliage application, 320 g/ha
In short: as §2

[28] = system: oval-leafed pondweed; experiment: Test Example 2: herbicidal activity, application during weed generation under submerged conditions (Table 17, symbol C); assay type: in vivo, oval-leafed pondweed (Monochoria vaginalis); conditions: AAH 320 g/ha; application during weed generation, submerged conditions
In short: as §1

[29] = system: velvetleaf; experiment: Test Example 5: herbicidal effect by foliage application, plastic box (Table 20, symbol M); assay type: in vivo, velvetleaf (Abutilon theophrasti); conditions: foliage application, 320 g/ha
In short: as §2

[30] = system: barnyard grass; experiment: Test Example 5: herbicidal effect by foliage application, plastic box (Table 20, symbol H); assay type: in vivo, barnyard grass (Echinochloa crus-galli); conditions: foliage application, 320 g/ha
In short: as §2

[31] = system: windgrass; experiment: Test Example 4: herbicidal effect by soil treatment (Table 19, symbol L); assay type: in vivo, windgrass (Apera spica-venti); conditions: amount of applied herbicide 320 g/ha
In short: as §3

[32] = evaluated three weeks after application

## Cc1nn(C)c(=O)c(-c2c(-c3ccc4c(c3)OCC4)sc3ccccc23)c1O [1-085]
[1]
  herbicidal effect rating, A: late watergrass: 1 (Herbicidal rate of 5% or more and less than 20%)
[2]; three weeks after application
  herbicidal effect grade, I: wild oat: 4 (Herbicidal rate of 70% or more and less than 90%)
[3]; three weeks after application
  herbicidal effect grade, R: persian speedwell: 5 (Herbicidal rate of 90% or more (almost completely withered))
[4]; three weeks after application
  herbicidal effect grade, N: redroot pigweed: 5 (Herbicidal rate of 90% or more (almost completely withered))
[5]; three weeks after application
  herbicidal effect grade, Q: false cleavers: 5 (Herbicidal rate of 90% or more (almost completely withered))
[6]
  herbicidal effect rating, O: lambsquarters: 5 (Herbicidal rate of 90% or more (almost completely withered))
[7]
  herbicidal effect rating, F: southern crabgrass: 5 (Herbicidal rate of 90% or more (almost completely withered))
[8]
  herbicidal effect rating, K: Italian ryegrass: 5 (Herbicidal rate of 90% or more (almost completely withered))
[9]
  herbicidal effect on D (Chinese sprangletop), rating 0-5: 4 (Herbicidal rate of 70% or more and less than 90%)
[10]
  herbicidal effect rating, N: redroot pigweed: 5 (Herbicidal rate of 90% or more (almost completely withered))
[11]
  herbicidal effect on H (barnyard grass), rating 0-5: 5 (Herbicidal rate of 90% or more (almost completely withered))
[12]
  herbicidal effect rating, G: green foxtail: 4 (Herbicidal rate of 70% or more and less than 90%)
[13]
  herbicidal effect rating, P: chickweed: 4 (Herbicidal rate of 70% or more and less than 90%)
[14]; three weeks after application
  herbicidal effect grade, J: blackgrass: 4 (Herbicidal rate of 70% or more and less than 90%)
[15]; three weeks after application
  herbicidal effect grade, K: Italian ryegrass: 5 (Herbicidal rate of 90% or more (almost completely withered))
[16]; three weeks after application
  herbicidal effect grade, G: green foxtail: 5 (Herbicidal rate of 90% or more (almost completely withered))
[17]; three weeks after application
  herbicidal effect grade, P: chickweed: 5 (Herbicidal rate of 90% or more (almost completely withered))
[18]
  herbicidal effect rating, B: Japanese bulrush: 1 (Herbicidal rate of 5% or more and less than 20%)
[19]
  herbicidal effect rating, Q: false cleavers: 4 (Herbicidal rate of 70% or more and less than 90%)
[20]
  herbicidal effect on E (rice flat sedge), rating 0-5: 5 (Herbicidal rate of 90% or more (almost completely withered))
[21]; three weeks after application
  herbicidal effect grade, L: windgrass: 5 (Herbicidal rate of 90% or more (almost completely withered))
[22]; three weeks after application
  herbicidal effect grade, F: southern crabgrass: 5 (Herbicidal rate of 90% or more (almost completely withered))
[23]
  herbicidal effect rating, I: wild oat: 0 (Herbicidal rate of 5% or less (almost no effect))
[24]
  herbicidal effect rating, H: barnyard grass: 4 (Herbicidal rate of 70% or more and less than 90%)
[25]
  herbicidal effect rating, M: velvetleaf: 3 (Herbicidal rate of 40% or more and less than 70%)
[26]
  herbicidal effect rating, R: persian speedwell: 4 (Herbicidal rate of 70% or more and less than 90%)
[27]; three weeks after application
  herbicidal effect grade, O: lambsquarters: 5 (Herbicidal rate of 90% or more (almost completely withered))
[28]
  herbicidal effect rating, C: oval-leafed pondweed: 2 (Herbicidal rate of 20% or more and less than 40%)
[29]; three weeks after application
  herbicidal effect grade, M: velvetleaf: 5 (Herbicidal rate of 90% or more (almost completely withered))
[30]; three weeks after application
  herbicidal effect grade, H: barnyard grass: 5 (Herbicidal rate of 90% or more (almost completely withered))

## CCCC(=O)Oc1c(C)nn(C)c(=O)c1-c1c(-c2ccc3c(c2)OCO3)sc2ccc(Cl)cc12 [2-126]
[1]
  herbicidal effect rating, A: late watergrass: 0 (Herbicidal rate of 5% or less (almost no effect))
[2]; [32]
  herbicidal effect on I: wild oat: 0 (Herbicidal rate of 5% or less (almost no effect))
[3]; [32]
  herbicidal effect on R: persian speedwell: 5 (Herbicidal rate of 90% or more (almost completely withered))
[31]
  L: windgrass, herbicidal effect rating: 0 (Herbicidal rate of 5% or less (almost no effect))
[4]; [32]
  herbicidal effect on N: redroot pigweed: 1 (Herbicidal rate of 5% or more and less than 20%)
[5]; [32]
  herbicidal effect on Q: false cleavers: 2 (Herbicidal rate of 20% or more and less than 40%)
[6]
  O: lambsquarters, herbicidal effect rating: 2 (Herbicidal rate of 20% or more and less than 40%)
[7]
  F: southern crabgrass, herbicidal effect rating: 0 (Herbicidal rate of 5% or less (almost no effect))
[8]
  K: Italian ryegrass, herbicidal effect rating: 0 (Herbicidal rate of 5% or less (almost no effect))
[10]
  N: redroot pigweed, herbicidal effect rating: 0 (Herbicidal rate of 5% or less (almost no effect))
[12]
  G: green foxtail, herbicidal effect rating: 0 (Herbicidal rate of 5% or less (almost no effect))
[13]
  P: chickweed, herbicidal effect rating: 3 (Herbicidal rate of 40% or more and less than 70%)
[14]; [32]
  herbicidal effect on J: blackgrass: 0 (Herbicidal rate of 5% or less (almost no effect))
[15]; [32]
  herbicidal effect on K: Italian ryegrass: 0 (Herbicidal rate of 5% or less (almost no effect))
[16]; [32]
  herbicidal effect on G: green foxtail: 0 (Herbicidal rate of 5% or less (almost no effect))
[17]; [32]
  herbicidal effect on P: chickweed: 2 (Herbicidal rate of 20% or more and less than 40%)
[18]
  herbicidal effect rating, B: Japanese bulrush: 0 (Herbicidal rate of 5% or less (almost no effect))
[19]
  Q: false cleavers, herbicidal effect rating: 0 (Herbicidal rate of 5% or less (almost no effect))
[21]; [32]
  herbicidal effect on L: windgrass: 0 (Herbicidal rate of 5% or less (almost no effect))
[22]; [32]
  herbicidal effect on F: southern crabgrass: 0 (Herbicidal rate of 5% or less (almost no effect))
[23]
  I: wild oat, herbicidal effect rating: 0 (Herbicidal rate of 5% or less (almost no effect))
[24]
  H: barnyard grass, herbicidal effect rating: 0 (Herbicidal rate of 5% or less (almost no effect))
[25]
  M: velvetleaf, herbicidal effect rating: 0 (Herbicidal rate of 5% or less (almost no effect))
[26]
  R: persian speedwell, herbicidal effect rating: 4 (Herbicidal rate of 70% or more and less than 90%)
[27]; [32]
  herbicidal effect on O: lambsquarters: 3 (Herbicidal rate of 40% or more and less than 70%)
[28]
  herbicidal effect rating, C: oval-leafed pondweed: 2 (Herbicidal rate of 20% or more and less than 40%)
[29]; [32]
  herbicidal effect on M: velvetleaf: 3 (Herbicidal rate of 40% or more and less than 70%)
[30]; [32]
  herbicidal effect on H: barnyard grass: 0 (Herbicidal rate of 5% or less (almost no effect))
